Species: Rattus norvegicus
Assay: DrugMatrix - Regimen: Daily Repeat
Type: toxicity, organism-based, Sprague-Dawley
Design: regimen Daily Repeat, gender Male, age 6-8 weeks
Settings: in vivo, po, route oral GAVAGE, vehicle .5 % CMC; for ABSOLUTE BASOPHIL / ABSOLUTE EOSINOPHIL / ABSOLUTE LYMPHOCYTE / ABSOLUTE MONOCYTE / ABSOLUTE SEGMENTED NEUTROPHIL / BASOPHIL / EOSINOPHIL / ERYTHROCYTE COUNT / HEMATOCRIT / HEMOGLOBIN / LEUKOCYTE COUNT / LYMPHOCYTE / MEAN CORPUSCULAR HEMOGLOBIN / MEAN CORPUSCULAR HEMOGLOBIN CONCENTRATION / MEAN CORPUSCULAR VOLUME / MONOCYTE / NEUTROPHIL / NUCLEATED RED BLOOD CELLS / PLATELET COUNT: tissue Blood; for ALANINE AMINOTRANSFERASE / ALBUMIN / ALKALINE PHOSPHATASE / ASPARTATE AMINOTRANSFERASE / BLOOD UREA NITROGEN / CARBON DIOXIDE / CHLORIDE / CHOLESTEROL / CREATINE PHOSPHOKINASE / CREATININE / GLUCOSE / LACTATE DEHYDROGENASE / LIPASE / PHOSPHORUS / POTASSIUM / SODIUM / TOTAL BILIRUBIN / TOTAL PROTEIN / URIC ACID: tissue Plasma
[1] = 100 mg/kg, 72 h, dose level Low, time 3 day
[2] = 100 mg/kg, 120 h, dose level Low, time 5 day
[3] = 1500 mg/kg, 72 h, dose level High, time 3 day
[4] = 1500 mg/kg, 120 h, dose level High, time 5 day

In the case of CC(C)Oc1ccc2c(=O)c(-c3ccccc3)coc2c1 [IPRIFLAVONE], the “ABSOLUTE BASOPHIL” value [1] is reported as 0 CELLS/uL, the “ABSOLUTE EOSINOPHIL” value [1] is reported as 99.33 CELLS/uL and the “ABSOLUTE LYMPHOCYTE” value [1] is reported as 13635.33 CELLS/uL. For the same molecule, the “ABSOLUTE MONOCYTE” value [1] was 415.67 CELLS/uL, the “ABSOLUTE SEGMENTED NEUTROPHIL” value [1] was 2916.33 CELLS/uL and the BASOPHIL [1] was 0%. For the same molecule, the EOSINOPHIL [1] was 0.67%, the “ERYTHROCYTE COUNT” value [1] was 5.96 x10E6/uL and the HEMATOCRIT [1] was 37.1%. For the same molecule, the HEMOGLOBIN [1] was 14.43 G/DL, the “LEUKOCYTE COUNT” value [1] was 17.07 x10E3/uL and the LYMPHOCYTE [1] was 80.33%. The “MEAN CORPUSCULAR HEMOGLOBIN” value [1] was 24.23 pg, the “MEAN CORPUSCULAR HEMOGLOBIN CONCENTRATION” value [1] was 38.93 G/DL and the “MEAN CORPUSCULAR VOLUME” value [1] was 62.3 fL. The MONOCYTE [1] was 2.33%, the NEUTROPHIL [1] was 16.67% and the “NUCLEATED RED BLOOD CELLS” value [1] was 0 /100WBC. The “PLATELET COUNT” value [1] was 1359 x10E3/uL, the “ALANINE AMINOTRANSFERASE” value [1] was 44 u/L and the ALBUMIN [1] was 4.53 G/DL. The “ALKALINE PHOSPHATASE” value [1] was 342.67 u/L, the “ASPARTATE AMINOTRANSFERASE” value [1] was 79.33 u/L and the “BLOOD UREA NITROGEN” value [1] was 19.67 mg/dL. For the same molecule, the “CARBON DIOXIDE” value [1] was 24.33 mmol/L, the CHLORIDE [1] was 97.67 MEQ/L and the CHOLESTEROL [1] was 61.67 mg/dL. For the same molecule, the “CREATINE PHOSPHOKINASE” value [1] was 241.33 u/L, the CREATININE [1] was 0.23 mg/dL and the GLUCOSE [1] was 153.33 mg/dL. The “LACTATE DEHYDROGENASE” value [1] was 129.33 u/L, the LIPASE [1] was 9.67 u/L and the PHOSPHORUS [1] was 11.17 mg/dL. The POTASSIUM [1] was 7.3 MEQ/L, the SODIUM [1] was 139.57 MEQ/L and the “TOTAL BILIRUBIN” value [1] was 0.23 mg/dL. The “TOTAL PROTEIN” value [1] was 6.17 G/DL, the “URIC ACID” value [1] was 2.23 mg/dL and the “ABSOLUTE BASOPHIL” value [2] was 0 CELLS/uL. The “ABSOLUTE EOSINOPHIL” value [2] was 57.67 CELLS/uL, the “ABSOLUTE LYMPHOCYTE” value [2] was 12897.67 CELLS/uL and the “ABSOLUTE MONOCYTE” value [2] was 315.33 CELLS/uL. For the same molecule, the “ABSOLUTE SEGMENTED NEUTROPHIL” value [2] was 1196 CELLS/uL, the BASOPHIL [2] was 0% and the EOSINOPHIL [2] was 0.33%. For the same molecule, the “ERYTHROCYTE COUNT” value [2] was 6.06 x10E6/uL, the HEMATOCRIT [2] was 36.3% and the HEMOGLOBIN [2] was 14.4 G/DL. For the same molecule, the “LEUKOCYTE COUNT” value [2] was 14.47 x10E3/uL, the LYMPHOCYTE [2] was 89% and the “MEAN CORPUSCULAR HEMOGLOBIN” value [2] was 23.8 pg. The “MEAN CORPUSCULAR HEMOGLOBIN CONCENTRATION” value [2] was 39.67 G/DL, the “MEAN CORPUSCULAR VOLUME” value [2] was 59.93 fL and the MONOCYTE [2] was 2%. The NEUTROPHIL [2] was 8.67%, the “NUCLEATED RED BLOOD CELLS” value [2] was 0.33 /100WBC and the “PLATELET COUNT” value [2] was 1112 x10E3/uL. The “ALANINE AMINOTRANSFERASE” value [2] was 47 u/L, the ALBUMIN [2] was 4.3 G/DL and the “ALKALINE PHOSPHATASE” value [2] was 297.33 u/L. For the same molecule, the “ASPARTATE AMINOTRANSFERASE” value [2] was 91.33 u/L, the “BLOOD UREA NITROGEN” value [2] was 15 mg/dL and the “CARBON DIOXIDE” value [2] was 25.33 mmol/L. For the same molecule, the CHLORIDE [2] was 100.67 MEQ/L, the CHOLESTEROL [2] was 64 mg/dL and the “CREATINE PHOSPHOKINASE” value [2] was 318.67 u/L. For the same molecule, the CREATININE [2] was 0.19 mg/dL, the GLUCOSE [2] was 158.67 mg/dL and the “LACTATE DEHYDROGENASE” value [2] was 474.67 u/L. For the same molecule, the LIPASE [2] was 9 u/L, the PHOSPHORUS [2] was 11.83 mg/dL and the POTASSIUM [2] was 6.46 MEQ/L. The SODIUM [2] was 142.8 MEQ/L, the “TOTAL BILIRUBIN” value [2] was 0.13 mg/dL and the “TOTAL PROTEIN” value [2] was 5.93 G/DL. For the same molecule, the “URIC ACID” value [2] was 1.7 mg/dL, the “ABSOLUTE BASOPHIL” value [3] was 0 CELLS/uL and the “ABSOLUTE EOSINOPHIL” value [3] was 0 CELLS/uL. For the same molecule, the “ABSOLUTE LYMPHOCYTE” value [3] was 12351.67 CELLS/uL, the “ABSOLUTE MONOCYTE” value [3] was 95 CELLS/uL and the “ABSOLUTE SEGMENTED NEUTROPHIL” value [3] was 2086.67 CELLS/uL. For the same molecule, the BASOPHIL [3] was 0%, the EOSINOPHIL [3] was 0% and the “ERYTHROCYTE COUNT” value [3] was 5.63 x10E6/uL. For the same molecule, the HEMATOCRIT [3] was 34.7%, the HEMOGLOBIN [3] was 13.77 G/DL and the “LEUKOCYTE COUNT” value [3] was 14.53 x10E3/uL. For the same molecule, the LYMPHOCYTE [3] was 85%, the “MEAN CORPUSCULAR HEMOGLOBIN” value [3] was 24.47 pg and the “MEAN CORPUSCULAR HEMOGLOBIN CONCENTRATION” value [3] was 39.67 G/DL. The “MEAN CORPUSCULAR VOLUME” value [3] was 61.63 fL, the MONOCYTE [3] was 0.67% and the NEUTROPHIL [3] was 14.33%. The “NUCLEATED RED BLOOD CELLS” value [3] was 0.33 /100WBC, the “PLATELET COUNT” value [3] was 1247.33 x10E3/uL and the “ALANINE AMINOTRANSFERASE” value [3] was 44.33 u/L. The ALBUMIN [3] was 4.3 G/DL, the “ALKALINE PHOSPHATASE” value [3] was 325 u/L and the “ASPARTATE AMINOTRANSFERASE” value [3] was 80.33 u/L. For the same molecule, the “BLOOD UREA NITROGEN” value [3] was 15.33 mg/dL, the “CARBON DIOXIDE” value [3] was 27 mmol/L and the CHLORIDE [3] was 101 MEQ/L. For the same molecule, the CHOLESTEROL [3] was 68.67 mg/dL, the “CREATINE PHOSPHOKINASE” value [3] was 256.33 u/L and the CREATININE [3] was 0.15 mg/dL. For the same molecule, the GLUCOSE [3] was 149.33 mg/dL, the “LACTATE DEHYDROGENASE” value [3] was 181 u/L and the LIPASE [3] was 9.33 u/L. The PHOSPHORUS [3] was 12.3 mg/dL, the POTASSIUM [3] was 6.1 MEQ/L and the SODIUM [3] was 143.17 MEQ/L. For the same molecule, the “TOTAL BILIRUBIN” value [3] was 0.1 mg/dL, the “TOTAL PROTEIN” value [3] was 5.67 G/DL and the “URIC ACID” value [3] was 1.53 mg/dL. The “ABSOLUTE BASOPHIL” value [4] was 0 CELLS/uL, the “ABSOLUTE EOSINOPHIL” value [4] was 0 CELLS/uL and the “ABSOLUTE LYMPHOCYTE” value [4] was 12219.33 CELLS/uL. For the same molecule, the “ABSOLUTE MONOCYTE” value [4] was 47.33 CELLS/uL, the “ABSOLUTE SEGMENTED NEUTROPHIL” value [4] was 1100 CELLS/uL and the BASOPHIL [4] was 0%. For the same molecule, the EOSINOPHIL [4] was 0%, the “ERYTHROCYTE COUNT” value [4] was 5.81 x10E6/uL and the HEMATOCRIT [4] was 35.17%. For the same molecule, the HEMOGLOBIN [4] was 14.03 G/DL, the “LEUKOCYTE COUNT” value [4] was 13.37 x10E3/uL and the LYMPHOCYTE [4] was 91.33%. For the same molecule, the “MEAN CORPUSCULAR HEMOGLOBIN” value [4] was 24.23 pg, the “MEAN CORPUSCULAR HEMOGLOBIN CONCENTRATION” value [4] was 39.9 G/DL and the “MEAN CORPUSCULAR VOLUME” value [4] was 60.63 fL. The MONOCYTE [4] was 0.33%, the NEUTROPHIL [4] was 8.33% and the “NUCLEATED RED BLOOD CELLS” value [4] was 0 /100WBC. For the same molecule, the “PLATELET COUNT” value [4] was 1215 x10E3/uL, the “ALANINE AMINOTRANSFERASE” value [4] was 48 u/L and the ALBUMIN [4] was 4.47 G/DL. For the same molecule, the “ALKALINE PHOSPHATASE” value [4] was 278.33 u/L, the “ASPARTATE AMINOTRANSFERASE” value [4] was 72.33 u/L and the “BLOOD UREA NITROGEN” value [4] was 14.67 mg/dL. The “CARBON DIOXIDE” value [4] was 25.67 mmol/L, the CHLORIDE [4] was 102.33 MEQ/L and the CHOLESTEROL [4] was 53 mg/dL. For the same molecule, the “CREATINE PHOSPHOKINASE” value [4] was 231 u/L, the CREATININE [4] was 0.16 mg/dL and the GLUCOSE [4] was 153 mg/dL. The “LACTATE DEHYDROGENASE” value [4] was 157.33 u/L, the LIPASE [4] was 9.67 u/L and the PHOSPHORUS [4] was 11.6 mg/dL. For the same molecule, the POTASSIUM [4] was 6.76 MEQ/L, the SODIUM [4] was 145.4 MEQ/L and the “TOTAL BILIRUBIN” value [4] was 0.2 mg/dL. The “TOTAL PROTEIN” value [4] was 6.17 G/DL and the “URIC ACID” value [4] was 1.9 mg/dL.
